According to BindingDB's records for doi:10.1021/jm0110901 (Carlsberg Laboratory, 2002):
pKi: −log10 of the molar value.

Biological target: Cysteine protease B CPB2.8ΔCTE (Leishmania mexicana)
Experiment: Inhibition of Leishmania mexicana Cysteine protease B (CPB2.8deltaCTE) was obtained in a solution-phase assay

pKi | Molecule
5.19 | CC[C@H](C)[C@H](NC(=O)[C@H](C)NC[C@H](Cc1ccccc1)NC(=O)[C@H](CCCNC(=N)N)NC(=O)[C@H](Cc1c[nH]c2ccccc12)NC(=O)[C@@H](N)CCSC)C(=O)N[C@H](C(=O)N[C@H](C(=O)O)[C@@H](C)O)[C@@H](C)CC [2-(2-{2-[2-(2-{2-[2-(2-Amino-4-methylsulfanyl-butyrylamino)-3-(1H-indol-3-yl)-propionylamino]-5-guanidino-pentanoylamino}-3-phenyl-propylamino)-propionylamino]-3-methyl-pentanoylamino}-3-methyl-pentanoylamino)-3-hydroxy-butyric acid]
4.00 | CC[C@H](C)[C@H](N)C(=O)N[C@H](C(=O)N[C@H](C(=O)N[C@@H](CCCCN)CN[C@@H](C)C(=O)N[C@H](C(=O)N[C@@H](CC1CCCCC1)C(=O)N[C@H](C(=O)O)[C@@H](C)O)[C@@H](C)CC)[C@@H](C)O)C(C)C [2-(2-{2-[2-(6-Amino-2-{2-[2-(2-amino-3-methyl-pentanoylamino)-3-methyl-butyrylamino]-3-hydroxy-butyrylamino}-hexylamino)-propionylamino]-3-methyl-pentanoylamino}-3-cyclohexyl-propionylamino)-3-hydroxy-butyric acid]
4.15 | CC[C@H](C)[C@H](NC(=O)[C@H](CC(C)C)NC[C@H](CCCNC(=N)N)NC(=O)CNC(=O)[C@H](CC1CCCCC1)NC(=O)[C@@H](N)C(C)C)C(=O)N[C@@H](Cc1cnc[nH]1)C(=O)N[C@@H](CC(=O)O)C(=O)O [2-[2-{2-[2-(2-{2-[2-(2-Amino-3-methyl-butyrylamino)-3-cyclohexyl-propionylamino]-acetylamino}-5-guanidino-pentylamino)-4-methyl-pentanoylamino]-3-methyl-pentanoylamino}-3-(3H-imidazol-4-yl)-propionylamino]-succinic acid]
4.51 | C[C@H](NC[C@H](Cc1ccccc1)NC(=O)[C@H](CCCCN)NC(=O)[C@H](CCCCN)NC(=O)[C@@H](N)CC(=O)O)C(=O)N[C@@H](CC1CCCCC1)C(=O)NCC(=O)N[C@@H](CCCCN)C(=O)O [6-Amino-2-(2-{2-[2-(2-{6-amino-2-[6-amino-2-(2-amino-3-carboxy-propionylamino)-hexanoylamino]-hexanoylamino}-3-phenyl-propylamino)-propionylamino]-3-cyclohexyl-propionylamino}-acetylamino)-hexanoic acid]
5.20 | CC[C@H](C)[C@H](NC(=O)[C@H](CC(N)=O)NC(=O)[C@H](Cc1ccccc1)NC[C@H](CCCCN)NC(=O)[C@H](CC1CCCCC1)NC(=O)[C@H](CC1CCCCC1)NC(=O)[C@@H](N)CC1CCCCC1)C(=O)N[C@@H](CCCCN)C(=O)O [6-Amino-2-(2-{2-[2-(6-amino-2-{2-[2-(2-amino-3-cyclohexyl-propionylamino)-3-cyclohexyl-propionylamino]-3-cyclohexyl-propionylamino}-hexylamino)-3-phenyl-propionylamino]-3-carbamoyl-propionylamino}-3-methyl-pentanoylamino)-hexanoic acid]
6.22 | C[C@H](NC[C@H](CCCCN)NC(=O)[C@H](Cc1ccccc1)NC(=O)[C@H](CCCCN)NC(=O)[C@@H](N)CC(=O)O)C(=O)N[C@@H](CC1CCCCC1)C(=O)NCC(=O)N[C@@H](CCCCN)C(=O)O [6-Amino-2-(2-{2-[2-(6-amino-2-{2-[6-amino-2-(2-amino-3-carboxy-propionylamino)-hexanoylamino]-3-phenyl-propionylamino}-hexylamino)-propionylamino]-3-cyclohexyl-propionylamino}-acetylamino)-hexanoic acid]
5.06 | NCCCC[C@H](NC(=O)[C@H](CC(N)=O)NC(=O)[C@H](Cc1ccccc1)NC(=O)[C@H](CO)NC[C@H](CCCN=C(N)N)NC(=O)[C@H](Cc1ccccc1)NC(=O)[C@H](CCCCN)NC(=O)[C@@H]1CCCN1)C(=O)O [6-Amino-2-[2-(2-{2-[2-(2-{6-amino-2-[(pyrrolidine-2-carbonyl)-amino]-hexanoylamino}-3-phenyl-propionylamino)-5-guanidino-pentylamino]-3-hydroxy-propionylamino}-3-phenyl-propionylamino)-3-carbamoyl-propionylamino]-hexanoic acid]
6.00 | CC(C)C[C@H](NC[C@H](Cc1ccccc1)NC(=O)[C@H](Cc1cnc[nH]1)NC(=O)[C@H](CCCCN)NC(=O)[C@@H](N)CC(=O)O)C(=O)N[C@@H](CC(C)C)C(=O)N[C@H](C(=O)N[C@@H](CCCCN)C(=O)O)C(C)C [6-Amino-2-{2-[2-(2-{2-[2-[6-amino-2-(2-amino-3-carboxy-propionylamino)-hexanoylamino]-3-(3H-imidazol-4-yl)-propionylamino]-3-phenyl-propylamino}-4-methyl-pentanoylamino)-4-methyl-pentanoylamino]-3-methyl-butyrylamino}-hexanoic acid]
5.96 | CSCC[C@H](NC(=O)[C@H](Cc1ccc(O)cc1)NC[C@H](Cc1ccccc1)NC(=O)[C@H](CC(C)C)NC(=O)[C@H](C)NC(=O)[C@@H](N)CC1CCCCC1)C(=O)N[C@@H](Cc1ccc(O)cc1)C(=O)N[C@@H](Cc1ccc(O)cc1)C(=O)O [ChaALF(CH2NH)YMYY]
4.35 | H-AIWYWAAV-OH [2-(2-{2-[2-[2-[2-[2-(2-Amino-propionylamino)-3-methyl-pentanoylamino]-3-(1H-indol-3-yl)-propionylamino]-3-(4-hydroxy-phenyl)-propionylamino]-3-(1H-indol-3-yl)-propionylamino]-propionylamino}-propionylamino)-3-methyl-butyric acid]

The remaining lines, values behind:

Molecule | pKi
CC[C@H](C)[C@H](NC(=O)[C@H](Cc1ccccc1)NC[C@H](Cc1ccccc1)NC(=O)[C@@H](NC(=O)[C@@H]1CCCN1C(=O)[C@@H](N)CCCCN)C(C)C)C(=O)N[C@@H](CC1CCCCC1)C(=O)O | 4.89
CC[C@H](C)[C@H](NC[C@H](Cc1ccccc1)NC(=O)[C@H](Cc1cnc[nH]1)NC(=O)[C@H](CCC(N)=O)NC(=O)[C@@H](N)CC(=O)O)C(=O)N[C@H](C(=O)N[C@H](C(=O)N[C@@H](CCC(N)=O)C(=O)O)C(C)C)[C@@H](C)CC | 4.52
CC[C@H](C)[C@H](NC(=O)[C@H](CC(C)C)NC[C@H](Cc1ccccc1)NC(=O)CNC(=O)[C@H](CCCCN)NC(=O)[C@@H](N)CC(=O)O)C(=O)N[C@H](C(=O)N[C@@H](CCCCN)C(=O)O)C(C)C | 4.73
CC[C@H](C)[C@H](N)C(=O)N[C@H](C(=O)NCC(=O)N[C@H](CN[C@@H](Cc1ccc(O)cc1)C(=O)N[C@H](C(=O)N[C@H](C(=O)N[C@@H](C)C(=O)O)C(C)C)[C@@H](C)CC)Cc1ccccc1)[C@@H](C)O | 4.27
CC[C@H](C)[C@H](NC(=O)[C@H](C)NC(=O)[C@@H](N)CC1CCCCC1)C(=O)N[C@H](CN[C@@H](Cc1ccc(O)cc1)C(=O)N[C@@H](CCSC)C(=O)N[C@@H](Cc1ccc(O)cc1)C(=O)N[C@@H](Cc1ccc(O)cc1)C(=O)O)Cc1ccccc1 | 7.00
CC[C@H](C)[C@H](NC(=O)[C@H](CCSC)NC(=O)[C@H](CO)NC(=O)[C@H](CC1CCCCC1)NC[C@H](Cc1ccccc1)NC(=O)[C@H](CC1CCCCC1)NC(=O)[C@H](CO)NC(=O)[C@@H](N)CC(=O)O)C(=O)O | 5.00
CC[C@H](C)[C@H](NC[C@H](Cc1ccccc1)NC(=O)[C@H](Cc1c[nH]cn1)NC(=O)[C@H](CCCCN)NC(=O)[C@@H](N)CC(=O)O)C(=O)N[C@H](C(=O)N[C@H](C(=O)N[C@@H](CCCCN)C(=O)O)C(C)C)[C@@H](C)CC | 4.70
CC[C@H](C)[C@H](N)C(=O)N[C@@H](CC(=O)O)C(=O)NCC(=O)N[C@@H](CCCCN)CN[C@@H](CC(C)C)C(=O)N[C@@H](Cc1ccc(O)cc1)C(=O)N[C@@H](C)C(=O)N1CCC[C@H]1C(=O)O [1-{2-[2-[2-(6-Amino-2-{2-[2-(2-amino-3-methyl-pentanoylamino)-3-carboxy-propionylamino]-acetylamino}-hexylamino)-4-methyl-pentanoylamino]-3-(4-hydroxy-phenyl)-propionylamino]-propionyl}-pyrrolidine-2-carboxylic acid] | 5.28
